System: Beet Armyworm (Spodoptera exigua)
Assay: Bioassays on BAW, 128-well diet tray assay
Format: in vivo
Settings: percent mortality, second instar larvae, 50 μg/cm^2 on artificial diet, five to seven days, 25° C.; Table 3
Experimental: Certain molecules disclosed in this document were tested against BAW and CEW and CL using procedures described in the following examples. In the reporting of the results, the “BAW & CEW & CL Rating Table” was used (See Table Section).
Bioassays on BAW (Spodoptera exigua)
Bioassays on BAW were conducted using a 128-well diet tray assay. one to five second instar BAW larvae were placed in each well (3 mL) of the diet tray that had been previously filled with 1 mL of artificial diet to which 50 μg/cm^2 of the test compound (dissolved in 50 μL of 90:10 acetone-water mixture) had been applied (to each of eight wells) and then allowed to dry. Trays were covered with a clear self-adhesive cover, and held at 25° C., 14:10 light-dark for five to seven days. Percent mortality was recorded for the larvae in each well; activity in the eight wells was then averaged. The results are indicated in the table entitled “Table 3: Assay Results” (See Table Section).

O=C(NC1CS(=O)(=O)C1)c1ccc(/C=C/C(c2cc(Cl)cc(Cl)c2)C(F)(F)F)cc1F (stereo not shown) [AC83, (E)-4-(3-(3,5-Dichlorophenyl)-4,4,4-trifluorobut-1-en-1-yl)-N-(1,1-dioxidothietan-3-yl)-2-fluorobenzamide]
BAW Rating: A (50-100)

O=C(NC1CS(=O)(=O)C1)c1ccc(/C=C/C(c2cc(Cl)c(F)c(Cl)c2)C(F)(F)F)cc1F (stereo not shown) [AC84]
BAW Rating: A (50-100)

COc1cc(/C=C/C(c2cc(Cl)c(F)c(Cl)c2)C(F)(F)F)ccc1C(=O)NC1CS(=O)(=O)C1 (stereo not shown) [AC85]
BAW Rating: A (50-100)

CCc1cc(/C=C/C(c2cc(Cl)c(F)c(Cl)c2)C(F)(F)F)ccc1C(=O)NC1CS(=O)(=O)C1 (stereo not shown) [AC86]
BAW Rating: A (50-100)

O=C(NC1C[S+]([O-])C1)c1ccc(/C=C/C(c2cc(Cl)c(F)c(Cl)c2)C(F)(F)F)cc1F (stereo not shown) [AC87]
BAW Rating: A (50-100)

Cc1cc(/C=C/C(c2cc(Cl)cc(Cl)c2)C(F)(F)F)ccc1C(=O)NCc1nnc(C2CC2)o1 (stereo not shown) [AC89, (E)-N-((5-Cyclopropyl-1,3,4-oxadiazol-2-yl)methyl)-4-(3-(3,5-dichlorophenyl)-4,4,4-trifluorobut-1-en-1-yl)-2-methylbenzamide]
BAW Rating: A (50-100)

FC(F)(F)CNC(=S)CNC(=S)c1ccc(/C=C/C(c2cc(Cl)c(Cl)c(Cl)c2)C(F)(F)F)cc1Br (stereo not shown) [AC90, (E)-2-Bromo-N-(2-thioxo-2-((2,2,2-trifluoroethyl)amino)ethyl)-4-(4,4,4-trifluoro-3-(3,4,5-trichlorophenyl)but-1-en-1-yl)benzothioamide]
BAW Rating: A (50-100)

O=C(CNC(=S)c1ccc(/C=C/C(c2cc(Cl)c(Cl)c(Cl)c2)C(F)(F)F)cc1Br)NCC(F)(F)F (stereo not shown) [AC91, (E)-2-(2-Bromo-4-(4,4,4-trifluoro-3-(3,4,5-trichlorophenyl)but-1-en-1-yl)phenylthioamido)-N-(2,2,2-trifluoroethyl)acetamide]
BAW Rating: A (50-100)

O=C(NCC(=S)NCC(F)(F)F)c1ccc(/C=C/C(c2cc(Cl)c(Cl)c(Cl)c2)C(F)(F)F)cc1Br (stereo not shown) [AC92, (E)-2-Bromo-N-(2-thioxo-2-((2,2,2-trifluoroethyl)amino)ethyl)-4-(4,4,4-trifluoro-3-(3,4,5-trichlorophenyl)but-1-en-1-yl)benzamide]
BAW Rating: A (50-100)

Cc1cc(/C=C\C(c2cc(Cl)cc(Cl)c2)C(F)(F)F)ccc1C(=O)NCC(=O)NC1CC1 (stereo not shown) [AC93]
BAW Rating: A (50-100)

O=C(CNC(=O)c1ccc(/C=C\C(c2cc(Cl)c(Cl)c(Cl)c2)C(F)(F)F)cc1Br)NCC(F)(F)F (stereo not shown) [AC95, (Z)-2-Bromo-N-(2-oxo-2-((2,2,2-trifluoroethyl)amino)ethyl)-4-(4,4,4-trifluoro-3-(3,4,5-trichlorophenyl)but-1-en-1-yl)benzamide]
BAW Rating: A (50-100)

O=C(CNC(=O)c1ccc(/C=C/C(c2cc(Cl)c(F)c(Cl)c2)C(F)(F)F)cc1[N+](=O)[O-])NCC(F)(F)F (stereo not shown) [AC98]
BAW Rating: A (50-100)

O=C(CNC(=O)c1ccc(/C=C/C(c2ccc(F)c(Cl)c2)C(F)(F)F)cc1Br)NCC(F)(F)F (stereo not shown) [AC99]
BAW Rating: A (50-100)

CC(=O)N1CCC(NC(=O)c2ccc(/C=C/C(c3cc(Cl)c(Cl)c(Cl)c3)C(F)(F)F)cc2Br)CC1 (stereo not shown) [AC103, (E)-N-(1-Acetylpiperidin-4-yl)-2-bromo-4-(4,4,4-trifluoro-3-(3,4,5-trichlorophenyl)but-1-en-1-yl)benzamide]
BAW Rating: A (50-100)

O=C(NC1CCN(C(=O)CC(F)(F)F)CC1)c1ccc(/C=C/C(c2cc(Cl)c(Cl)c(Cl)c2)C(F)(F)F)cc1Br (stereo not shown) [AC104, (E)-2-Bromo-4-(4,4,4-trifluoro-3-(3,4,5-trichlorophenyl)but-1-en-1-yl)-N-(1-(3,3,3-trifluoropropanoyl)piperidin-4-yl)benzamide]
BAW Rating: A (50-100)

CN1CCC(NC(=O)c2ccc(/C=C/C(c3cc(Cl)c(Cl)c(Cl)c3)C(F)(F)F)cc2Br)CC1 (stereo not shown) [AC106, (E)-2-Bromo-N-(1-methylpiperidin-4-yl)-4-(4,4,4-trifluoro-3-(3,4,5-trichlorophenyl)but-1-en-1-yl)benzamide]
BAW Rating: A (50-100)

N#CCN1CCC(NC(=O)c2ccc(/C=C/C(c3cc(Cl)c(Cl)c(Cl)c3)C(F)(F)F)cc2Br)CC1 (stereo not shown) [AC107]
BAW Rating: B (More than 0-Less than 50)

O=C(NC1CCN(C2COC2)CC1)c1ccc(/C=C/C(c2cc(Cl)c(Cl)c(Cl)c2)C(F)(F)F)cc1Br (stereo not shown) [AC108, (E)-2-Bromo-N-(1-(oxetan-3-yl)piperidin-4-yl)-4-(4,4,4-trifluoro-3-(3,4,5-trichlorophenyl)but-1-en-1-yl)benzamide]
BAW Rating: B (More than 0-Less than 50)

CONC(=O)CNC(=O)c1ccc(/C=C/C(c2cc(Cl)c(Cl)c(Cl)c2)C(F)(F)F)cc1Br (stereo not shown) [AC110]
BAW Rating: A (50-100)

C=CCNC(=O)CNC(=O)c1ccc(/C=C/C(c2cc(Cl)c(Cl)c(Cl)c2)C(F)(F)F)cc1Br (stereo not shown) [AC111]
BAW Rating: A (50-100)

O=C(NCCc1ccc(Cl)nc1)c1ccc(/C=C/C(c2cc(Cl)c(Cl)c(Cl)c2)C(F)(F)F)cc1Br (stereo not shown) [AC113]
BAW Rating: B (More than 0-Less than 50)

O=C(NC1CCNCC1)c1ccc(/C=C/C(c2cc(Cl)c(Cl)c(Cl)c2)C(F)(F)F)cc1Br (stereo not shown) [AC114, (E)-2-Bromo-N-(piperidin-4-yl)-4-(4,4,4-trifluoro-3-(3,4,5-trichlorophenyl)but-1-en-1-yl)benzamide]
BAW Rating: A (50-100)

Cc1cc(/C=C/C(c2cc(Cl)cc(Cl)c2)C(F)(F)F)ccc1C(=S)NCc1ccc(Cl)nc1 (stereo not shown) [AC115, (E)-N-((6-Chloropyridin-3-yl)methyl)-4-(3-(3,5-dichlorophenyl)-4,4,4-trifluorobut-1-en-1-yl)-2-methylbenzothioamide]
BAW Rating: A (50-100)

Cc1cc(/C=C/C(c2cc(Cl)cc(Cl)c2)C(F)(F)F)ccc1C(=O)N(C)Cc1ccc(Cl)nc1 (stereo not shown) [AC117]
BAW Rating: A (50-100)

Cc1cc(/C=C/C(c2cc(Cl)cc(Cl)c2)C(F)(F)F)ccc1C(=O)NCC1CCCO1 (stereo not shown) [AC118]
BAW Rating: A (50-100)

O=C(CC(F)(F)F)NC1CCCc2cc(/C=C/C(c3cc(Cl)c(Cl)c(Cl)c3)C(F)(F)F)ccc21 (stereo not shown) [BC5]
BAW Rating: A (50-100)

O=C(NC1CCc2cc(/C=C/C(c3cc(Cl)c(Cl)c(Cl)c3)C(F)(F)F)ccc21)C1CC1 (stereo not shown) [BC6]
BAW Rating: A (50-100)

O=C(NC1CCCc2cc(/C=C/C(c3cc(Cl)c(Cl)c(Cl)c3)C(F)(F)F)ccc21)C1CC1 (stereo not shown) [BC7]
BAW Rating: A (50-100)

O=C(CC(F)(F)F)NC1CCc2cc(/C=C/C(c3cc(Cl)c(F)c(Cl)c3)C(F)(F)F)ccc21 (stereo not shown) [BC8]
BAW Rating: A (50-100)

O=C(Cc1ccc(Cl)nc1)NC1CCc2cc(/C=C/C(c3cc(Cl)c(F)c(Cl)c3)C(F)(F)F)ccc21 (stereo not shown) [BC9]
BAW Rating: A (50-100)

Fc1c(Cl)cc(C(/C=C/c2ccc3c(c2)CCC3NCCC(F)(F)F)C(F)(F)F)cc1Cl (stereo not shown) [BC10, (E)-5-(3-(3,5-Dichloro-4-fluorophenyl)-4,4,4-trifluorobut-1-en-1-yl)-N-(3,3,3-trifluoropropyl)-2,3-dihydro-1H-inden-1-amine]
BAW Rating: A (50-100)

O=C(CC(F)(F)F)NCC(=O)n1ccc2cc(/C=C/C(c3cc(Cl)c(F)c(Cl)c3)C(F)(F)F)ccc21 (stereo not shown) [BC13, (E)-N-(2-(5-(3-(3,5-Dichloro-4-fluorophenyl)-4,4,4-trifluorobut-1-en-1-yl)-1H-indol-1-yl)-2-oxoethyl)-3,3,3-trifluoropropanamide]
BAW Rating: A (50-100)

O=C(Cn1ncc2cc(/C=C/C(c3cc(Cl)c(F)c(Cl)c3)C(F)(F)F)ccc2c1=O)NCC(F)(F)F (stereo not shown) [BC14, (E)-2-(6-(3-(3,5-Dichloro-4-fluorophenyl)-4,4,4-trifluorobut-1-en-1-yl)-1-oxophthalazin-2(1H)-yl)-N-(2,2,2-trifluoroethyl)acetamide]
BAW Rating: A (50-100)

O=C(NCc1ccc(/C=C/C(c2cc(Cl)cc(Cl)c2)C(F)(F)F)cc1)C1CC1 (stereo not shown) [CC2]
BAW Rating: A (50-100)

O=C(CC(F)(F)F)NCc1ccc(/C=C/C(c2cc(Cl)cc(Cl)c2)C(F)(F)F)cc1 (stereo not shown) [CC3]
BAW Rating: A (50-100)

CCC(=O)NCc1ccc(/C=C/C(c2cc(Cl)cc(Cl)c2)C(F)(F)F)cc1 (stereo not shown) [CC4]
BAW Rating: A (50-100)

O=C(NCc1ccc(/C=C/C(c2cc(Cl)c(Cl)c(Cl)c2)C(F)(F)F)cc1)C1CC1 (stereo not shown) [CC5]
BAW Rating: A (50-100)

O=C(CC(F)(F)F)NCc1ccc(/C=C/C(c2cc(Cl)c(Cl)c(Cl)c2)C(F)(F)F)cc1 (stereo not shown) [CC6]
BAW Rating: A (50-100)

CC(=O)NCc1ccc(/C=C/C(c2cc(Cl)cc(Cl)c2)C(F)(F)F)cc1Cl (stereo not shown) [CC7, (E)-N-(2-Chloro-4-(3-(3,5-dichlorophenyl)-4,4,4-trifluorobut-1-en-1-yl)benzyl)acetamide]
BAW Rating: A (50-100)

O=C(NCc1ccc(/C=C/C(c2cc(Cl)cc(Cl)c2)C(F)(F)F)cc1Cl)C1CC1 (stereo not shown) [CC8]
BAW Rating: A (50-100)

O=C(CC(F)(F)F)NCc1ccc(/C=C/C(c2cc(Cl)cc(Cl)c2)C(F)(F)F)cc1Cl (stereo not shown) [CC9]
BAW Rating: A (50-100)

O=C(NCc1ccc(/C=C/C(c2cc(Cl)c(Cl)c(Cl)c2)C(F)(F)F)cc1Cl)C1CC1 (stereo not shown) [CC11]
BAW Rating: A (50-100)

O=C(Cc1ccc(Cl)nc1)NCc1ccc(/C=C/C(c2cc(Cl)c(Cl)c(Cl)c2)C(F)(F)F)cc1Cl (stereo not shown) [CC14]
BAW Rating: A (50-100)
